≈ marks a conversion by molar mass, not a printed value. Positions of bridges follow the written chain, without caps; N, C: chain ends. Non-standard residues stand in square brackets, D forms with d. Residues, ends and D or L forms follow the SMILES beside them. S5 = C=CCCC[C@](C)(N)C(=O)O; Dab = NCC[C@H](N)C(=O)O; Dap = NC[C@H](N)C(=O)O
Key:
[1] = tested on: S. aureus; format: cell-based, Staphylococcus aureus
Summary of the method: (§1)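 Broth microdilution adapted from CLSI in Mueller-Hinton broth or cation-adjusted MHB. Overnight 37 °C cultures were regrown 3-4 h, then added to serially diluted peptide at a final 5×10^5 CFU/ml. After 20-24 h at 37 °C, MIC was the lowest peptide concentration with no visible growth.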

[2] = in vitro; format: cell-based; settings: human, Inhibitory Concentration at 50% Cytotoxicity (IC50) Human Liver Cells (HepG2)
Summary of the method: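 HepG2 cells in EMEM with 10% FBS, allowed 4 h to attach, then exposed to serial dilutions of StAMPs (from a 5 mg/mL water stock) or vehicle. After 48 h at 37 °C, viability read by CellTiter-Glo luminescence.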

[3] = tested on: P. aeruginosa; format: cell-based, Pseudomonas aeruginosa
Summary of the method: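 Broth microdilution adapted from CLSI in MHB or cation-adjusted MHB; log-phase P. aeruginosa at 5×10^5 CFU/ml final with serially diluted stapled peptides. Incubated 20-24 h at 37 °C; MIC is the lowest concentration without visible growth.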

[4] = tested on: A. baumannii; format: cell-based, Acinetobacter baumannii
Summary of the method: as §1

[5] = tested on: E. coli; format: cell-based, Escherichia coli
Summary of the method: as §1

[6] = tested on: K. pneumoniae; format: cell-based, Klebsiella pneumoniae
Summary of the method: as §1

Row | Structure (SMILES) | Minimum Inhibitory Concentration (MIC) S. aureus [1] [µg/mL] | IC50 at 48 hours [2] [µg/mL] | Minimum Inhibitory Concentration (MIC) P. aeruginosa [3] [µg/mL] | Minimum Inhibitory Concentration (MIC) A. baumannii [4] [µg/mL] | Minimum Inhibitory Concentration (MIC) E. coli [5] [µg/mL] | Minimum Inhibitory Concentration (MIC) K. pneumoniae [6] [µg/mL]
1 | CC(C)[C@@H]1NC(=O)[C@@](C)(NC(=O)[C@H](C)NC(=O)[C@H](CCCCN)NC(=O)CNC(=O)[C@H](Cc2ccccc2)NC(=O)[C@H](CCCCN)NC(=O)[C@H](CCCCN)NC(=O)[C@H](CCCCN)NC(=O)[C@H](CCCCN)NC(=O)[C@H](CN)NC(=O)[C@]2(C)CCCC=CCCC[C@](C)(NC(=O)CN)C(=O)NCC(=O)N[C@@H](CCCCN)C(=O)N[C@@H](Cc3ccccc3)C(=O)N2)CCCC=CCCC[C@@](C)(C(=O)N[C@@H](C)C(=O)N[C@@H](CCCCN)C(=O)N[C@@H](CCCCN)C(=O)NCC(=O)NCC(=O)N[C@@H](CCC(=O)O)C(N)=O)NC(=O)[C@H](CCC(=O)O)NC(=O)CNC1=O [compound 80] (H-G[S5]GKF[S5][Dap]KKKKFGKA[S5]VGE[S5]AKKGGE-NH2; staple 2-6, 16-20) | >64 | > 200 | 4 | 8 | 8 | >64
2 | CC(C)[C@@H]1NC(=O)[C@@](C)(NC(=O)[C@H](C)NC(=O)[C@H](CCCCN)NC(=O)CNC(=O)[C@H](Cc2ccccc2)NC(=O)[C@H](CCCCN)NC(=O)[C@H](CCCCN)NC(=O)[C@H](CCCCN)NC(=O)[C@H](CCCCN)NC(=O)[C@H](CCCCN)NC(=O)[C@]2(C)CCCC=CCCC[C@](C)(NC(=O)CN)C(=O)NCC(=O)N[C@@H](CN)C(=O)N[C@@H](Cc3ccccc3)C(=O)N2)CCCC=CCCC[C@@](C)(C(=O)N[C@@H](C)C(=O)N[C@@H](CCCCN)C(=O)N[C@@H](CCCCN)C(N)=O)NC(=O)[C@H](CCC(=O)O)NC(=O)CNC1=O [compound 45] (H-G[S5]G[Dap]F[S5]KKKKKFGKA[S5]VGE[S5]AKK-NH2; staple 2-6, 16-20) | >64 | 104 (≈ 41.2 µM) | 4 | 2 | 2 | 4
3 | CC(C)[C@@H]1NC(=O)[C@@](C)(NC(=O)[C@H](C)NC(=O)[C@H](CCCCN)NC(=O)CNC(=O)[C@H](Cc2ccccc2)NC(=O)[C@H](CCCCN)NC(=O)[C@H](CCCCN)NC(=O)[C@H](CCCCN)NC(=O)[C@H](CCCCN)NC(=O)[C@H](CN)NC(=O)[C@]2(C)CCCC=CCCC[C@](C)(NC(=O)CN)C(=O)NCC(=O)N[C@@H](CCCCN)C(=O)N[C@@H](Cc3ccccc3)C(=O)N2)CCCC=CCCC[C@@](C)(C(=O)N[C@@H](C)C(=O)N[C@@H](CCCCN)C(=O)N[C@@H](CCCCN)C(N)=O)NC(=O)[C@H](CCC(=O)O)NC(=O)[C@H](CO)NC1=O [compound 88] (H-G[S5]GKF[S5][Dap]KKKKFGKA[S5]VSE[S5]AKK-NH2; staple 2-6, 16-20) | >64 | 168 (≈ 65.8 µM) | 1 | 1 | 1 | 32
4 | CC(C)[C@@H]1NC(=O)[C@@](C)(NC(=O)[C@H](C)NC(=O)[C@H](CCCCN)NC(=O)CNC(=O)[C@H](Cc2ccccc2)NC(=O)[C@H](CCCCN)NC(=O)[C@H](CCCCN)NC(=O)[C@H](CN)NC(=O)[C@H](CCCCN)NC(=O)[C@H](CN)NC(=O)[C@]2(C)CCCC=CCCC[C@](C)(NC(=O)CN)C(=O)NCC(=O)N[C@@H](CCCCN)C(=O)N[C@@H](Cc3ccccc3)C(=O)N2)CCCC=CCCC[C@@](C)(C(=O)N[C@@H](C)C(=O)N[C@@H](CCCCN)C(=O)N[C@@H](CCCCN)C(N)=O)NC(=O)[C@H](CCC(=O)O)NC(=O)CNC1=O [compound 82] (H-G[S5]GKF[S5][Dap]K[Dap]KKFGKA[S5]VGE[S5]AKK-NH2; staple 2-6, 16-20) | >64 | 190 (≈ 76.6 µM) | 2 | 1 | 4 | 64
5 | CC(C)[C@@H]1NC(=O)[C@@](C)(NC(=O)[C@H](C)NC(=O)[C@H](CCCCN)NC(=O)CNC(=O)[C@H](Cc2ccccc2)NC(=O)[C@H](CCCCN)NC(=O)[C@H](CCCCN)NC(=O)[C@H](CCCCN)NC(=O)[C@H](CCCCN)NC(=O)[C@H](CCCCN)NC(=O)[C@]2(C)CCCC=CCCC[C@](C)(NC(=O)CN)C(=O)NCC(=O)N[C@@H](CCCCN)C(=O)N[C@@H](Cc3ccccc3)C(=O)N2)CCCC=CCCC[C@@](C)(C(=O)N[C@@H](CO)C(=O)N[C@@H](CCCCN)C(=O)N[C@@H](CCCCN)C(=O)NCC(=O)NCC(=O)N[C@@H](CCC(=O)O)C(N)=O)NC(=O)[C@H](CCC(=O)O)NC(=O)CNC1=O [compound 94] (H-G[S5]GKF[S5]KKKKKFGKA[S5]VGE[S5]SKKGGE-NH2; staple 2-6, 16-20) | 64 | > 200 | 2 | 4 | 8 | >64
6 | CC(C)[C@@H]1NC(=O)[C@@](C)(NC(=O)[C@H](C)NC(=O)[C@H](CCCCN)NC(=O)CNC(=O)[C@H](Cc2ccccc2)NC(=O)[C@H](CCCCN)NC(=O)[C@H](CCCCN)NC(=O)[C@H](CCCCN)NC(=O)[C@H](CCCCN)NC(=O)[C@H](CCCCN)NC(=O)[C@]2(C)CCCC=CCCC[C@](C)(NC(=O)CN)C(=O)NCC(=O)N[C@@H](CCCCN)C(=O)N[C@@H](Cc3ccccc3)C(=O)N2)CCCC=CCCC[C@@](C)(C(=O)N[C@@H](C)C(=O)N[C@@H](CCCCN)C(=O)N[C@@H](CCCCN)C(=O)NCC(=O)NCC(=O)N[C@@H](CCC(=O)O)C(N)=O)NC(=O)[C@H](CCC(=O)O)NC(=O)[C@H](CO)NC1=O [compound 93] (H-G[S5]GKF[S5]KKKKKFGKA[S5]VSE[S5]AKKGGE-NH2; staple 2-6, 16-20) | >64 | > 200 | 1 | 1 | 2 | 32
7 | CC(C)[C@@H]1NC(=O)[C@@](C)(NC(=O)[C@H](C)NC(=O)[C@H](CCCCN)NC(=O)CNC(=O)[C@H](Cc2ccccc2)NC(=O)[C@H](CCCCN)NC(=O)[C@H](CCN)NC(=O)[C@H](CCCCN)NC(=O)[C@H](CCCCN)NC(=O)[C@H](CCCCN)NC(=O)[C@]2(C)CCCC=CCCC[C@](C)(NC(=O)CN)C(=O)NCC(=O)N[C@@H](CCCCN)C(=O)N[C@@H](Cc3ccccc3)C(=O)N2)CCCC=CCCC[C@@](C)(C(=O)N[C@@H](C)C(=O)N[C@@H](CCCCN)C(=O)N[C@@H](CCCCN)C(N)=O)NC(=O)[C@H](CCC(=O)O)NC(=O)CNC1=O [compound 43] (H-G[S5]GKF[S5]KKK[Dab]KFGKA[S5]VGE[S5]AKK-NH2; staple 2-6, 16-20) | 32 | 127 (≈ 50.1 µM) | 4 | 2 | 4 | 8

From patent publication US20240174723A1, “STAPLED ANTIMICROBIAL PEPTIDES (STAMPS) AND USES THEREOF” (Lytica Therapeutics, Inc., priority 2021, published 2024)
